Experiments:
[1] = system: ABUTH (Abutilon theophrasti); experiment: Postemergence herbicidal evaluation; assay type: in vivo, Medic.
In short: (§1)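 Seedlings grown about two weeks in flats, sprayed, then kept under standard greenhouse care. Rated visually 4–5 weeks after treatment on a 0–9 scale (stand, vigour, malformation, size, chlorosis, overall appearance) relative to untreated control; repeat tests averaged.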

GALAP (Galium aparine) = experiment: Postemergence herbicidal evaluation; assay type: in vivo
In short: as §1

[2] = system: IPOHE (Ipomoea hederacea); experiment: Postemergence herbicidal evaluation; assay type: in vivo, (L.) Jacq.
In short: as §1

[3] = system: ECHCG (Echinochloa crus-galli); experiment: Postemergence herbicidal evaluation; assay type: in vivo, (L.) Beau
In short: as §1

SETVI (Setaria viridis) [4] = experiment: Postemergence herbicidal evaluation; assay type: in vivo, (L.) Beau
In short: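 Seedlings about two weeks old were sprayed with compound in 50/50 acetone/water plus 0.5% TWEEN 20, at the equivalent of about 0.0040 to 1.000 kg/ha. Plants were kept in a greenhouse and visually rated 0-9 against a control four to five weeks after treatment. Repeat tests were averaged.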

[5] = system: GLXMAW (Soybean, Williams); experiment: Postemergence herbicidal evaluation; assay type: in vivo, Glycine max, (L.) Merr. cv Williams
In short: as §1

ORYSAT (Rice, Tebonnet) [6] = experiment: Postemergence herbicidal evaluation; assay type: in vivo, Oryza sativa, (L.) Tebonnet
In short: as §1

ZEAMX (Corn, Field) = experiment: Postemergence herbicidal evaluation; assay type: in vivo, Zea mays, L.
In short: as §1

[7] = system: AMBEL (Ambrosia artemisifolia); experiment: Preemergence herbicidal evaluation; assay type: in vivo, L.; conditions: rated 4-5 weeks after treatment
In short: (§2)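 Applied before emergence as an aqueous acetone spray over seeded soil. Read-out: 0–9 visual rating covering plant stand, vigor, size, chlorosis, malformation and overall appearance compared with control, taken 4–5 weeks after spraying.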

[8] = system: CASOB (Cassia obtusifolia); experiment: Preemergence herbicidal evaluation; assay type: in vivo, L.; conditions: rated 4-5 weeks after treatment
In short: as §2

[9] = system: CHEAL (Chenopodium album); experiment: Preemergence herbicidal evaluation; assay type: in vivo, L.; conditions: rated 4-5 weeks after treatment
In short: as §2

[10] = system: IPOHE (Ipomoea hederacea); experiment: Preemergence herbicidal evaluation; assay type: in vivo, (L.) Jacq.; conditions: rated 4-5 weeks after treatment
[11] = system: ECHCG (Echinochloa crus-galli); experiment: Preemergence herbicidal evaluation; assay type: in vivo, (L.) Beau; conditions: rated 4-5 weeks after treatment
In short: as §2

SETVI (Setaria viridis) [12] = experiment: Preemergence herbicidal evaluation; assay type: in vivo, (L.) Beau; conditions: rated 4-5 weeks after treatment
In short: as §2

ORYSAT (Rice, Tebonnet) [13] = experiment: Preemergence herbicidal evaluation; assay type: in vivo, Oryza sativa, (L.) Tebonnet; conditions: rated 4-5 weeks after treatment
[14] = system: ECHORC (Echinochloa oryzoides); experiment: Flooded paddy, preemergence weed control; assay type: in vivo, Echinochloa oryzoides (Ard.) Fritsch.; conditions: rated 3-4 weeks after treatment, 0-9 rating scale
In short: (§3)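 Under paddy conditions, seeds or vegetative propagules go into the top 0.5 cm of silt loam; the soil is then flooded to 1.5–3 cm and kept so. Treated pots stay in a greenhouse; response is rated 0-9 visually versus control.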

CYPIR (Cyperus iria) = experiment: Flooded paddy, preemergence weed control; assay type: in vivo; conditions: rated 3-4 weeks after treatment, 0-9 rating scale
In short: as §3

[15] = system: MOOVA (Monochoria vaginalis); experiment: Flooded paddy, preemergence weed control; assay type: in vivo, Presl.; conditions: rated 3-4 weeks after treatment, 0-9 rating scale
In short: as §3

[16] = system: SAGPY (Sagittaria pygmaea); experiment: Flooded paddy, preemergence weed control; assay type: in vivo, L.; conditions: rated 3-4 weeks after treatment, 0-9 rating scale
In short: as §3

ORYSAT (Rice, Tebonnet) [17] = experiment: Flooded paddy, post-transplant rice tolerance; assay type: in vivo, Oryza sativa, (L.) Tebonnet; conditions: flooded paddy, post-transplant rice, rated 3-4 weeks after treatment, 0-9 rating scale
In short: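 Seedlings aged ten days are transplanted in pairs into undrained pots of silt loam, which are then flooded to a depth of 1.5 to 3 cm. After herbicide application the pots are kept in a greenhouse with the flood maintained. Plants are rated 0-9 by visual comparison with controls.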

[18] = Rate 0.2500 kg/ha, preemergence

SMILES: Cn1c(C(F)(F)F)cc(=O)n(-c2ccc3snc(-c4ncccn4)c3c2)c1=O [Compound 12, 1-methyl-3-[3-(2-pyrimidinyl)-1,2-benzisothiazol-5-yl]-6-(trifluoromethyl)uracil]
- Postemergence herbicidal rating, ABUTH ([1]; rate 0.0620 kg/ha): 9.0
- Postemergence herbicidal rating, GALAP (GALAP (Galium aparine); rate 0.0620 kg/ha): 9.0
- Postemergence herbicidal rating, IPOHE ([2]; rate 0.0620 kg/ha): 9.0
- Postemergence herbicidal rating, ECHCG ([3]; rate 0.0620 kg/ha): 4.0
- Postemergence herbicidal rating, SETVI (SETVI (Setaria viridis) [4]; rate 0.0620 kg/ha): 9.0
- Postemergence herbicidal rating, GLXMAW ([5]; rate 0.0620 kg/ha): 8.5
- Postemergence herbicidal rating, ORYSAT (ORYSAT (Rice, Tebonnet) [6]; rate 0.0620 kg/ha): 6.0
- Postemergence herbicidal rating, ZEAMX (ZEAMX (Corn, Field); rate 0.0620 kg/ha): 5.5
- AMBEL preemergence herbicidal rating [7, 18]: 9.0
- CASOB preemergence herbicidal rating [8, 18]: 8.5
- CHEAL preemergence herbicidal rating [9, 18]: 9.0
- IPOHE preemergence herbicidal rating [10, 18]: 9.0
- ECHCG preemergence herbicidal rating [11, 18]: 9.0
- SETVI preemergence herbicidal rating (SETVI (Setaria viridis) [12]; [18]): 9.0
- ORYSAT preemergence herbicidal rating (ORYSAT (Rice, Tebonnet) [13]; [18]): 8.5
- herbicidal rating, ECHORC ([14]; rate 0.1250 kg/ha): 8.7
- herbicidal rating, CYPIR (CYPIR (Cyperus iria); rate 0.1250 kg/ha): 9.0
- herbicidal rating, MOOVA ([15]; rate 0.1250 kg/ha): 9.0
- herbicidal rating, SAGPY ([16]; rate 0.1250 kg/ha): 3.7
- herbicidal rating, ORYSAT (rice tolerance) (ORYSAT (Rice, Tebonnet) [17]; rate 0.1250 kg/ha): 7.0

SMILES: CCOc1cc(OCC)nc(-c2nsc3ccc(-n4c(=O)cc(C(F)(F)F)n(C)c4=O)cc23)n1 [Compound 43, 3-[3-(4,6-diethoxy-2-pyrimidinyl)-1,2-benzisothiazol-5-yl]-1-methyl-6-(trifluoromethyl)uracil]
- Postemergence herbicidal rating, ABUTH ([1]; rate 0.0320 kg/ha): 9.0
- Postemergence herbicidal rating, ABUTH ([1]; rate 0.0620 kg/ha): 9.0
- Postemergence herbicidal rating, GALAP (GALAP (Galium aparine); rate 0.0320 kg/ha): 4.0
- Postemergence herbicidal rating, GALAP (GALAP (Galium aparine); rate 0.0620 kg/ha): 4.0
- Postemergence herbicidal rating, IPOHE ([2]; rate 0.0320 kg/ha): 9.0
- Postemergence herbicidal rating, IPOHE ([2]; rate 0.0620 kg/ha): 9.0
- Postemergence herbicidal rating, ECHCG ([3]; rate 0.0320 kg/ha): 2.0
- Postemergence herbicidal rating, ECHCG ([3]; rate 0.0620 kg/ha): 2.0
- Postemergence herbicidal rating, SETVI (SETVI (Setaria viridis) [4]; rate 0.0320 kg/ha): 5.0
- Postemergence herbicidal rating, SETVI (SETVI (Setaria viridis) [4]; rate 0.0620 kg/ha): 4.0
- Postemergence herbicidal rating, GLXMAW ([5]; rate 0.0320 kg/ha): 6.0
- Postemergence herbicidal rating, GLXMAW ([5]; rate 0.0620 kg/ha): 6.0
- Postemergence herbicidal rating, ORYSAT (ORYSAT (Rice, Tebonnet) [6]; rate 0.0320 kg/ha): 2.0
- Postemergence herbicidal rating, ORYSAT (ORYSAT (Rice, Tebonnet) [6]; rate 0.0620 kg/ha): 2.0
- Postemergence herbicidal rating, ZEAMX (ZEAMX (Corn, Field); rate 0.0320 kg/ha): 4.5
- Postemergence herbicidal rating, ZEAMX (ZEAMX (Corn, Field); rate 0.0620 kg/ha): 4.5
- Preemergence herbicidal rating AMBEL ([7]; Rate 0.0620 kg/ha): 0.0
- Preemergence herbicidal rating AMBEL ([7]; Rate 0.1250 kg/ha): 1.0
- Preemergence herbicidal rating AMBEL ([7]; Rate 0.2500 kg/ha): 7.0
- Preemergence herbicidal rating CASOB ([8]; Rate 0.0620 kg/ha): 0.0
- Preemergence herbicidal rating CASOB ([8]; Rate 0.1250 kg/ha): 0.0
- Preemergence herbicidal rating CASOB ([8]; Rate 0.2500 kg/ha): 1.0
- Preemergence herbicidal rating CHEAL ([9]; Rate 0.0620 kg/ha): 9.0
- Preemergence herbicidal rating CHEAL ([9]; Rate 0.1250 kg/ha): 9.0
- Preemergence herbicidal rating CHEAL ([9]; Rate 0.2500 kg/ha): 9.0
- Preemergence herbicidal rating IPOHE ([10]; Rate 0.0620 kg/ha): 0.0
- Preemergence herbicidal rating IPOHE ([10]; Rate 0.1250 kg/ha): 0.0
- Preemergence herbicidal rating IPOHE ([10]; Rate 0.2500 kg/ha): 2.0
- Preemergence herbicidal rating ECHCG ([11]; Rate 0.0620 kg/ha): 0.0
- Preemergence herbicidal rating ECHCG ([11]; Rate 0.1250 kg/ha): 0.0
- Preemergence herbicidal rating ECHCG ([11]; Rate 0.2500 kg/ha): 3.0
- Preemergence herbicidal rating SETVI (SETVI (Setaria viridis) [12]; Rate 0.0620 kg/ha): 9.0
- Preemergence herbicidal rating SETVI (SETVI (Setaria viridis) [12]; Rate 0.1250 kg/ha): 9.0
- Preemergence herbicidal rating SETVI (SETVI (Setaria viridis) [12]; Rate 0.2500 kg/ha): 9.0
- Preemergence herbicidal rating ORYSAT (ORYSAT (Rice, Tebonnet) [13]; Rate 0.0620 kg/ha): 1.0
- Preemergence herbicidal rating ORYSAT (ORYSAT (Rice, Tebonnet) [13]; Rate 0.1250 kg/ha): 2.0
- Preemergence herbicidal rating ORYSAT (ORYSAT (Rice, Tebonnet) [13]; Rate 0.2500 kg/ha): 2.0
- herbicidal rating, ECHORC ([14]; rate 0.0320 kg/ha): 5.0
- herbicidal rating, ECHORC ([14]; rate 0.1250 kg/ha): 9.0
- herbicidal rating, CYPIR (CYPIR (Cyperus iria); rate 0.0320 kg/ha): 0.0
- herbicidal rating, CYPIR (CYPIR (Cyperus iria); rate 0.1250 kg/ha): 5.0
- herbicidal rating, MOOVA ([15]; rate 0.0320 kg/ha): 4.0
- herbicidal rating, MOOVA ([15]; rate 0.1250 kg/ha): 6.0
- herbicidal rating, SAGPY ([16]; rate 0.0320 kg/ha): 0.0
- herbicidal rating, SAGPY ([16]; rate 0.1250 kg/ha): 2.0
- herbicidal rating, ORYSAT (rice tolerance) (ORYSAT (Rice, Tebonnet) [17]; rate 0.0320 kg/ha): 0.0
- herbicidal rating, ORYSAT (rice tolerance) (ORYSAT (Rice, Tebonnet) [17]; rate 0.1250 kg/ha): 2.0
